Experimental data from patent publication US9393221B2, “Methods and compounds for reducing intracellular lipid storage” (THE GENERAL HOSPITAL CORPORATION, priority 2011, dated 2016).
Where a name gives a salt, the structure may show the parent alone. Read-outs that look alike come from different tables or passages of the source.

Tested on: ATGL-KO iPSCs
Assay: High throughput iPSC chemical screening, Oil Red O (ORO) lipid accumulation; for Z-score: test concentration or dose not given here
Type: cell-based, mouse
Conditions: for Rank in normalized ORO score from screen: glycolytic switch compounds
[1] = normalized ORO level vs DMSO-treated cells, compound present during 7 days differentiation, 96-well, negative = decrease in lipid accumulation

COc1cc(OC)c(C(=O)CCCN2CCCC2)c(OC)c1 [Buflomedil hydrochloride]
Z-score [1]: −0.0451

NC[C@H]1O[C@H](O[C@H]2[C@H](O)[C@@H](O[C@H]3O[C@H](CO)[C@@H](O)[C@H](N)[C@H]3O)[C@H](N)C[C@@H]2N)[C@H](N)C[C@@H]1O [Tobramycin]
Z-score [1]: 1.694

CC(C)n1c(/C=C/C(O)CC(O)CC(=O)O)c(-c2ccc(F)cc2)c2ccccc21 (stereo not shown) [Fluvastatin sodium salt]
Z-score [1]: 9.993

Clc1cnccn1 [2-Chloropyrazine]
Z-score [1]: −0.5863

S=C(NC1CCCCC1)N1CCC(c2cnc[nH]2)CC1 [Thioperamide maleate]
Z-score [1]: −0.6114

CC(C)(Oc1ccc(CCNC(=O)c2ccc(Cl)cc2)cc1)C(=O)O [Bezafibrate]
Z-score [1]: −0.2571

CO[C@H](C)[C@](O)(C(=O)OCC1=CCN2CC[C@H](O)[C@@H]12)C(C)C [Heliotrine]
Z-score [1]: −1.2812

CN1CCN(C2=Nc3cc(Cl)ccc3Nc3ccccc32)CC1 [Clozapine]
Z-score [1]: 0.4154

COc1cc(-c2ccc(=O)[nH]n2)ccc1OC(F)F [Zardaverine]
Z-score [1]: −0.6963

O=C(N/N=C/c1ccc([N+](=O)[O-])o1)c1ccc(O)cc1 [Nifuroxazide]
Rank in normalized ORO score from screen: 957
Z-score [1]: 1.279

CC(C(=O)O)c1ccc(-c2ccccc2)c(F)c1 (stereo not shown) [Flurbiprofen]
Z-score [1]: −1.4

CC(C)(C)c1ccc(C(O)CCCN2CCC(C(O)(c3ccccc3)c3ccccc3)CC2)cc1 (stereo not shown) [Terfenadine]
Z-score [1]: −0.8896

COc1ccc(-c2cc(=O)c3c(O)cc(O)cc3o2)cc1 [Acacetin]
Z-score [1]: 0.4211

CC[N+]1(C)[C@@H]2CC[C@H]1CC(OC(=O)[C@@H]1CC[C@@](C(=O)OC3C[C@H]4CC[C@@H](C3)[N+]4(C)CC)(c3ccccc3)c3ccccc31)C2.[Cl-].[Cl-] (stereo partly drawn) [beta-Belladonnine dichloroethylate]
Z-score [1]: −0.7978

CCNCC(O)c1cccc(O)c1 (stereo not shown) [Etilefrine hydrochloride]
Z-score [1]: 0.1398

CC(=O)[C@H]1CC[C@H]2[C@@H]3CCC4=CC(=O)CC[C@]4(C)[C@H]3CC[C@]12C [Progesterone]
Z-score [1]: 2.344

CN(C)CCOC(=O)COc1ccc(Cl)cc1 [Meclofenoxate hydrochloride]
Z-score [1]: 0.4945

C=C[C@]12CN(C)[C@@H]3[C@H]4CO[C@H](C[C@H]41)[C@]1(C(=O)Nc4ccccc41)[C@@H]32 [Gelsemine]
Z-score [1]: −0.4693

C=C(C)[C@@H]1CC[C@]2(C(=O)O)CC[C@]3(C)[C@H](CC[C@@H]4[C@@]5(C)CC[C@H](O)C(C)(C)[C@@H]5CC[C@]43C)[C@@H]12 [Betulinic acid]
Z-score [1]: 0.4119

c1ccc([C@H]2CN3CCSC3=N2)cc1 [Levamisole hydrochloride]
Z-score [1]: −0.8539

C[C@]12N[C@H](Cc3ccccc31)c1ccccc12 [Dizocilpine maleate]
Z-score [1]: −1.1505

CC1(C)OC(=O)NC1=O [Dimethadione]
Z-score [1]: −0.9493

Cc1ccc(Cl)c(Nc2ccccc2C(=O)O)c1Cl
Z-score [1]: −1.2044

Nc1ccc(S(=O)(=O)Nc2ccnn2-c2ccccc2)cc1 [Sulfaphenazole]
Z-score [1]: −0.2854

CC(=O)c1ccc2c(c1)N(CCCN1CCC(CCO)CC1)c1ccccc1S2 [Piperacetazine]
Z-score [1]: −0.4798

Cc1ccc(C(=O)c2ccc(CC(=O)O)n2C)cc1 [Tolmetin sodium salt dihydrate]
Z-score [1]: −1.0425

CS(=O)(=O)Nc1ccc([N+](=O)[O-])cc1Oc1ccccc1 [Nimesulide]
Z-score [1]: −1.0153

CN1C(=O)CCS(=O)(=O)C1c1ccc(Cl)cc1 (stereo not shown) [Chlormezanone]
Z-score [1]: −0.6525

Cc1ccc(N(CC2=NCCN2)c2cccc(O)c2)cc1 [Phentolamine hydrochloride]
Z-score [1]: 0.3245

CCN(CC)CCOC(=O)c1ccc(N)cc1 [Procaine hydrochloride]
Z-score [1]: −0.5215

Colistin sulfate
Z-score [1]: −0.5041

CCN(CC)CCNC(=O)c1cc(Cl)c(N)cc1OC [Metoclopramide monohydrochloride]
Z-score [1]: −1.0824

CC[C@@H](CO)NCCN[C@@H](CC)CO [Ethambutol dihydrochloride]
Z-score [1]: −0.6303

OCCN(CCO)c1nc(N2CCCCC2)c2nc(N(CCO)CCO)nc(N3CCCCC3)c2n1 [Dipyridamole]
Z-score [1]: 0.4282

CC[C@H](C)[C@H]1O[C@]2(CC[C@@H]1C)C[C@@H]1C[C@@H](C/C=C(\C)[C@@H](O[C@H]3C[C@H](OC)[C@@H](O[C@H]4C[C@H](OC)[C@@H](O)[C@H](C)O4)[C@H](C)O3)[C@@H](C)/C=C/C=C3\CO[C@@H]4[C@H](O)C(C)=C[C@@H](C(=O)O1)[C@]34O)O2 [Ivermectin]
Z-score [1]: 0.9419

C[n+]1cccc(C(=O)[O-])c1 [Trigonelline]
Z-score [1]: −1.518

CC(C)(C)NC(=O)[C@H]1CC[C@H]2[C@@H]3CC[C@H]4NC(=O)C=C[C@]4(C)[C@H]3CC[C@]12C [Finasteride]
Z-score [1]: 1.067

CCCCc1ccc(C(=O)O)nc1 [Fusaric acid]
Z-score [1]: −0.977

CNCCCC12CCC(c3ccccc31)c1ccccc12 [Maprotiline hydrochloride]
Z-score [1]: 0.03741

CCN1C[C@]2(COC)CC[C@H](O)[C@]34C1[C@@](O)([C@@H](OC)[C@H]23)[C@@]1(O)C[C@H](OC)[C@H]2C[C@@H]4[C@@H]1[C@H]2OC [Delsoline]
Z-score [1]: −1.3301

CCCCC[C@H](O)/C=C/[C@@H]1[C@@H](C/C=C\CCCC(=O)O)[C@@H](O)C[C@H]1O [Dinoprost trometamol]
Z-score [1]: 0.7612

Clc1ccc(COC(Cn2ccnc2)c2ccc(Cl)cc2Cl)c(Cl)c1 (stereo not shown) [Miconazole]
Z-score [1]: −0.018

Cc1ncc(CO)c(CO)c1O.Cl [Pyridoxine hydrochloride]
Z-score [1]: 1.366

O=C(O)CCC(=O)Nc1ccc(S(=O)(=O)Nc2nccs2)cc1 [Succinylsulfathiazole]
Z-score [1]: 1.139

Clofilium tosylate
Z-score [1]: 13.6063

O=C(Nc1ccccc1)OCC(CN1CCCCC1)OC(=O)Nc1ccccc1 (stereo not shown) [Diperodon hydrochloride]
Z-score [1]: −0.6048

N[C@@H](C(=O)N[C@@H]1C(=O)N2C(C(=O)O)=C(Cl)CC[C@H]12)c1ccccc1 [Loracarbef]
Z-score [1]: 0.6457

CN(C)CCC(c1ccc(Br)cc1)c1ccccn1 (stereo not shown) [Brompheniramine maleate]
Z-score [1]: 1.885

Lycorine hydrochloride
Z-score [1]: 21.7885

CC(NC(C)(C)C)C(=O)c1cccc(Cl)c1 (stereo not shown) [Bupropion hydrochloride]
Z-score [1]: 0.7193

CO/N=C(\C(=O)N[C@@H]1C(=O)N2C(C(=O)O)=C(COC(C)=O)CS[C@H]12)c1csc(N)n1 [Cefotaxime sodium salt]
Z-score [1]: −0.8289

C[C@@H]1C[C@H]2[C@@H]3C[C@H](F)C4=CC(=O)C=C[C@]4(C)[C@@]3(Cl)[C@@H](O)C[C@]2(C)[C@H]1C(=O)COC(=O)C(C)(C)C [Clocortolone pivalate]
Z-score [1]: 1.217

CCCCOc1ccc(OCCCN2CCOCC2)cc1 [Pramoxine hydrochloride]
Z-score [1]: 0.5195

CC(O)Cn1cnc2c1c(=O)n(C)c(=O)n2C (stereo not shown) [Proxyphylline]
Z-score [1]: −0.7317

CO[C@@]1(NC(=O)C2SC(=C(C(N)=O)C(=O)O)S2)C(=O)N2C(C(=O)O)=C(CSc3nnnn3C)CS[C@@H]21 (stereo partly shown) [Cefotetan]
Z-score [1]: 2.584

Cc1cc(N)c2ccccc2[n+]1CCCCCCCCCC[n+]1c(C)cc(N)c2ccccc21 [Dequalinium dichloride]
Z-score [1]: 42.6725

Cc1ccc(S(=O)(=O)NC(=O)NN2CC3CCCC3C2)cc1 (stereo not shown) [Gliclazide]
Z-score [1]: 0.2404

CCCC(C)(COC(N)=O)COC(=O)NC(C)C (stereo not shown) [Carisoprodol]
Z-score [1]: 0.5591

Nc1ccc(S(N)(=O)=O)cc1 [Sulfanilamide]
Z-score [1]: 0.2959

CC[N+](C)(C)Cc1ccccc1Br [Bretylium tosylate]
Z-score [1]: 1.9055

CCN(CC)CCCC(C)Nc1c2ccc(Cl)cc2nc2ccc(OC)cc12 (stereo not shown) [Quinacrine dihydrochloride dihydrate]
Z-score [1]: 0.141

CC(CCc1ccccc1)NCC(O)c1ccc(O)c(C(N)=O)c1 (stereo not shown) [Labetalol hydrochloride]
Z-score [1]: −1.5017

C[C@]12CC[C@H](O)C[C@@H]1CC[C@@H]1[C@@H]2CC[C@]2(C)C(=O)CC[C@@H]12 [Epiandrosterone]
Z-score: −0.835

Timolol maleate salt
Z-score [1]: 0.4592

O=C(O)c1cccnc1Nc1cccc(C(F)(F)F)c1 [Niflumic acid]
Z-score [1]: −0.6436

Nc1nc2ncc(CNc3ccc(C(=O)N[C@@H](CCC(=O)O)C(=O)O)cc3)nc2c(=O)[nH]1 [Folic acid]
Z-score [1]: 1.253

Cc1cccc(C)c1NC(=O)CN1CCN(CCCC(c2ccc(F)cc2)c2ccc(F)cc2)CC1 [Lidoflazine]
Z-score [1]: 1.42

O.Oc1cc(O)c2c(c1)OC(c1ccc(O)c(O)c1)C(O)C2 (racemic) [Catechin-(+,−) hydrate]
Z-score [1]: −0.9777

C#C[C@]1(O)CC[C@H]2[C@@H]3CCc4cc(OC)ccc4[C@H]3CC[C@@]21C [Ethynylestradiol 3-methyl ether]
Z-score [1]: −0.93

C#C[C@]1(OC(C)=O)CC[C@H]2[C@@H]3CCC4=C[C@@H](OC(C)=O)CC[C@@H]4[C@H]3CC[C@@]21C [Ethynodiol diacetate]
Rank in normalized ORO score from screen: 61
Z-score [1]: −1.4458

N[C@@H](Cc1ccc(O)c(O)c1)C(=O)O [Levodopa]
Z-score [1]: −0.1655

NC[C@H]1O[C@H](O[C@H]2[C@H](O[C@@H]3O[C@H](CO)[C@@H](O)[C@H]3O)[C@@H](O)[C@H](N)C[C@@H]2N)[C@H](N)[C@@H](O)[C@@H]1O [Ribostamycin sulfate salt]
Z-score [1]: −0.4737

O=C(CCCN1CC=C(n2c(=O)[nH]c3ccccc32)CC1)c1ccc(F)cc1 [Droperidol]
Z-score [1]: −0.5996

CC1(C)O[C@@H]2C[C@H]3[C@@H]4C[C@H](F)C5=CC(=O)C=C[C@]5(C)[C@H]4[C@@H](O)C[C@]3(C)[C@]2(C(=O)CO)O1 [Flunisolide]
Z-score [1]: 0.2241

c1ccc(C2CN3CCSC3=N2)cc1 (stereo not shown) [Tetramisole hydrochloride]
Z-score [1]: 0.1333

CCc1cccc(CC)c1NC(=O)CN(CC(=O)O)CC(=O)O [Etifenin]
Z-score [1]: −1.0427

CN1C(C)(C)CCCC1(C)C [Pempidine tartrate]
Z-score [1]: −0.8069
